The experiment concerns ecdysone receptor (EcR) based, chemically inducible gene expression system. Kind of experiment: Ecdysone receptor-based gene induction: upstream LUC activation and downstream RLUC expression in protoplasts. In kind it is cell-based, tobacco.

Here are results for 1 compound from US20020155540A1, “Method to reduce transcriptional interference between tandem genes” (priority 2001, published 2002).

Experimental: Protoplasts were prepared from actively growing tobacco BY-2 suspension cells (Japan Tobacco, Japan) and cultured essentially as described in Kikkawa et al. (9). One ml of protoplasts (5×10^5 to 1×10^6 cells) was mixed with plasmid DNA and electroporated at 0.56 K Volts for 80 μ seconds using an electroporation system with petripulser electrode (BTX). Equimolar plasmid DNA was added to transfections and the amount of DNA added varied from 23 to 30 μg depending on the plasmid size. To standardize the luciferase enzyme assays, 2 μg of the RLUC plasmid DNA were also added to each transfection as an internal control. Following the electroporation, protoplasts were diluted with 1 ml of 2×protoplast culture medium, aliquoted as two 1 ml cultures and incubated at 27° C. for 16-17 h. Each plasmid construct was tested in 5 to 7 independent transfection experiments.
Protoplast cultures were lysed by adding 250 μl of 5× passive lysis buffer (Promega) and shaking at room temperature for 10 minutes. […] The assay was performed with a luminometer plate reader (Dynex). The luciferase enzyme activities were measured and expressed as ratios of luciferase to Renilla luciferase activities in relative light units.
Induction of the Luc gene expression cassette was controlled by the addition of EcR ligand methoxyfenozide.
It contains a constitutively expressed chimeric GVE receptor gene (CsVMV promoter—sequences coding for GAL4 DNA binding domain, VP16 activation domain, and EcR ligand binding domain—NOS terminator) and an inducible promoter (five copies of GAL4 response element+minimal 35S promoter) to drive LUC gene expression (FIG. 1D). When the ligand methoxyfenozide (4) is applied to protoplasts, it binds to and activates the chimeric receptor. The activated receptor then induces LUC gene expression. This system was used to activate the upstream LUC gene, and the influence of LUC activation on the downstream constitutive RLUC gene expression was then measured.

With `COc1cccc(C(=O)NN(C(=O)c2cc(C)cc(C)c2)C(C)(C)C)c1C` [methoxyfenozide], for the setting “10 μM methoxyfenozide”, the “Luc Induced” value is reported as 25,428 RLU and the “RLuc Induced” value was determined as 8832 RLU. The “reduction of downstream, constitutively expressed RLuc expression” value (after activation of upstream Luc gene with ligand) came out at 71%.
